# Laboratory results as given in patent US12357574B2, “Particle coating method” (University of Limerick, priority 2020, dated 2025).
# Experiment: Dissolution percentage as a function of time, UV spectrophotometry
# Type: physicochemical
# Conditions: API as received
# Procedure: The dissolution percentage as a function of time was measured by respectively dissolving the as received CBZ and the coated MCC carrier particles in methanol (although other dissolution media could be used). UV spectrophotometry was used to measure the concentration of the CBZ dissolved in the methanol.
"dissolution percentage (after approximately 50 minutes, methanol)","dissolution percentage (within 10 minutes, methanol)",Compound,dissolution percentage (after approximately 60 minutes)
approximately 80%,less than 40%,"NC(=O)N1c2ccccc2C=Cc2ccccc21 [Carbamazepine, carbamazepine]",–
–,–,"Cc1nc2n(c(=O)c1CCN1CCC(c3noc4cc(F)ccc34)CC1)CCCC2 [Risperidone, risperidone]",less than 40%
